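1) Cells in 96-well plates. 2) Compound, 48 h, 5 concentrations. 3) Linear interpolation between surrounding doses. 4) Unreached endpoint = highest concentration. TGI denotes the concentration required for complete inhibition of growth.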
Tests used:
Test in all cases: growth of human tumour cells (NCI), 48 h
[1] = test system: 786-0 renal
[2] = test system: A498 renal
[3] = test system: A549 NSCLC
[4] = test system: ACHN renal
[5] = test system: CAKI-1 renal
[6] = test system: CCRF-CEM leukemia
[7] = test system: COLO 205 colon
[8] = test system: DLD-1 colon
[9] = test system: DMS 114 small cell lung
[10] = test system: DMS 273 small cell lung
[11] = test system: EKVX NSCLC
[12] = test system: HCC-2998 colon
[13] = test system: HCT-116 colon
[14] = test system: HCT-15 colon
[15] = test system: HL-60(TB) leukemia
[16] = test system: HOP-18 NSCLC
[17] = test system: HOP-62 NSCLC
[18] = test system: HOP-92 NSCLC
[19] = test system: HT29 colon
[20] = test system: IGROV1 ovarian
[21] = test system: K-562 leukemia
[22] = test system: KM12 colon
[23] = test system: KM20L2 colon
[24] = test system: LOX IMVI melanoma
[25] = test system: LXFL 529 NSCLC
[26] = test system: M19-MEL melanoma
[27] = test system: MALME-3M melanoma
[28] = test system: MOLT-4 leukemia
[29] = test system: NCI-H226 lung
[30] = test system: NCI-H23 lung
[31] = test system: NCI-H460 lung
[32] = test system: NCI-H522 lung
[33] = test system: OVCAR-3 ovarian
[34] = test system: OVCAR-4 ovarian
[35] = test system: OVCAR-5 ovarian
[36] = test system: OVCAR-8 ovarian
[37] = test system: RPMI-8226 leukemia
[38] = test system: RXF 393 renal
[39] = test system: SF-268 CNS
[40] = test system: SF-295 CNS
[41] = test system: SF-539 CNS
[42] = test system: SK-MEL-2 melanoma
[43] = test system: SK-MEL-28 melanoma
[44] = test system: SK-MEL-5 melanoma
[45] = test system: SK-OV-3 ovarian
[46] = test system: SN12C renal
[47] = test system: SNB-19 CNS
[48] = test system: SNB-75 CNS
[49] = test system: SNB-78 CNS
[50] = test system: SR leukemia
[51] = test system: SW-620 colon
[52] = test system: TK-10 renal
[53] = test system: U251 CNS
[54] = test system: UACC-257 melanoma
[55] = test system: UACC-62 melanoma
[56] = test system: UO-31 renal
[57] = test system: M14 melanoma
[58] = test system: XF 498 CNS

## O=C(CCN1CCCCC1CCO)Nc1ccc2c(c1)C(=O)c1ccc(NC(=O)CCN3CCCCC3CCO)cc1C2=O (centres undefined)
[1]
  TGI: 5.54 µM
[2]
  TGI: 8.45 µM
[3]
  TGI: 41.1 µM
[4]
  TGI: 24.9 µM
[5]
  TGI: 57.5 µM
[6]
  TGI: > 100 µM
[7]
  TGI: 10.4 µM
[8]
  TGI: 14.9 µM
[9]
  TGI: 14.7 µM
[10]
  TGI: 12.5 µM
[11]
  TGI: 27 µM
[12]
  TGI: > 100 µM
[13]
  TGI: 14.7 µM
[14]
  TGI: 24.6 µM
[15]
  TGI: 19 µM
[16]
  TGI: 8.41 µM
[17]
  TGI: 21.4 µM
[18]
  TGI: 31 µM
[19]
  TGI: 20.6 µM
[20]
  TGI: 18.9 µM
[21]
  TGI: > 100 µM
[22]
  TGI: 9.87 µM
[23]
  TGI: 38 µM
[24]
  TGI: 13.2 µM
[25]
  TGI: 5.65 µM
[26]
  TGI: 74.9 µM
[27]
  TGI: 10.9 µM
[28]
  TGI: 39.1 µM
[29]
  TGI: 22.1 µM
[30]
  TGI: 40.3 µM
[31]
  TGI: 20.4 µM
[32]
  TGI: 5.32 µM
[33]
  TGI: 9.03 µM
[34]
  TGI: 45.4 µM
[35]
  TGI: 61.2 µM
[36]
  TGI: 15.1 µM
[37]
  TGI: 31.8 µM
[38]
  TGI: 6.46 µM
[39]
  TGI: 25.4 µM
[40]
  TGI: 33.9 µM
[41]
  TGI: 7.89 µM
[42]
  TGI: 7.27 µM
[43]
  TGI: 23.5 µM
[44]
  TGI: 21.5 µM
[45]
  TGI: 22.6 µM
[46]
  TGI: 16 µM
[47]
  TGI: 26.2 µM
[48]
  TGI: 9.83 µM
[49]
  TGI: 20.1 µM
[50]
  TGI: 29.3 µM
[51]
  TGI: 9.88 µM
[52]
  TGI: 14.6 µM
[53]
  TGI: 14.9 µM
[54]
  TGI: 20.6 µM
[55]
  TGI: 13.9 µM
[56]
  TGI: > 100 µM

## COc1ccc(CC(=O)c2cc(OC)c(OC)cc2C)cc1OC
[1]
  TGI: > 100 µM
[2]
  TGI: > 100 µM
[3]
  TGI: > 100 µM
[4]
  TGI: > 100 µM
[5]
  TGI: > 100 µM
[6]
  TGI: > 100 µM
[7]
  TGI: > 100 µM
[8]
  TGI: > 100 µM
[9]
  TGI: > 100 µM
[11]
  TGI: > 100 µM
[12]
  TGI: > 100 µM
[14]
  TGI: > 100 µM
[17]
  TGI: > 100 µM
[19]
  TGI: > 100 µM
[20]
  TGI: > 100 µM
[21]
  TGI: > 100 µM
[22]
  TGI: > 100 µM
[23]
  TGI: > 100 µM
[25]
  TGI: > 100 µM
[57]
  TGI: > 100 µM
[26]
  TGI: > 100 µM
[27]
  TGI: > 100 µM
[28]
  TGI: > 100 µM
[30]
  TGI: > 100 µM
[31]
  TGI: > 100 µM
[32]
  TGI: > 100 µM
[33]
  TGI: > 100 µM
[34]
  TGI: > 100 µM
[35]
  TGI: > 100 µM
[36]
  TGI: > 100 µM
[37]
  TGI: > 100 µM
[39]
  TGI: > 100 µM
[40]
  TGI: > 100 µM
[42]
  TGI: > 100 µM
[43]
  TGI: > 100 µM
[44]
  TGI: > 100 µM
[45]
  TGI: > 100 µM
[46]
  TGI: > 100 µM
[47]
  TGI: > 100 µM
[48]
  TGI: > 100 µM
[49]
  TGI: > 100 µM
[51]
  TGI: > 100 µM
[52]
  TGI: > 100 µM
[53]
  TGI: > 100 µM
[54]
  TGI: 75.8 µM
[55]
  TGI: > 100 µM
[56]
  TGI: > 100 µM
[58]
  TGI: > 100 µM
